Reference: US6239284A, “Aromatic tetracyclic compounds of the retinoid type method for preparing and use” (priority 1997, dated 2001)

Experiments:
RARβ [1] = assay: Transactivation of chimerical receptor GAL4-RARβ, transient transfection of HeLa cells (luciferase)
Source text: (§8) Studies of the transactivational specificity of the retinoids have been carried out by transitory transfection of HeLa cells. Two types of chimerical receptors can then be expressed by the cells. […] The C region (domain of bonding to the DNA) and the A and B regions (AF-1 activation domain) are suppressed.
(§9) These chimerical receptors activated by an agonist specifically stimulate the transcription of the gene of the luciferase present in a co-transfected plasmid ((17M)5-βG-Luc) where 17M is the response element of Gal4.

RARγ = assay: Transactivation of chimerical receptor GAL4-RARγ, transient transfection of HeLa cells (luciferase)
Source text: as §8, §9

RARβ [2] = assay: Transactivation of chimerical receptor RARβ-ERcassette, transient transfection of HeLa cells; format: cell-based
Source text: (§1) The HeLa cells are co-transfected by a plasmid which codes for a retinoic receptor in which the C domain of bonding to the DNA is substituted by that of the receptor to RE estrogens, and a plasmid which places the expression of the luciferase under the control of an ERE (Element of Response to Estrogens). The expressed chimerical receptors are designated as RARα-ERcassette, RARβ-ERcassette, RARγ-ERcassette and RXRα-ERcassette. The A, B, D, E and F regions of the natural receptor are preserved as well as the transcriptional co-operation between the activation domains AF-1 and AF-2. These transitory transfection experiments follow the method of co-precipitation to calcium phosphate. The HeLa cells are co-transfected by […] of plasmid coding for the chimerical receptor, […] of reporter plasmid and […] of expression vector CMV-β-galactosidase used as an internal control of transfection. 24 hours after the transfection, the cells are incubated for 16 hours with the different effectors.
(§2) In this type of chimerical receptor, the C domain of bonding to the DNA of RAR is substituted by that of the receptor to the RE estrogens. The protein obtained is close to the natural RAR receptor and preserves the transcriptional properties of the AF-1 and AF-2 domains. It modulates the transcription by means of an ERE. This RAR-ERcassette model allows one to observe a transcriptional response to a more physiological ligand.
(§3) The study of the selectivity of the compounds was carried out with the RAR-ERcassette chimerical receptors model.
(§4) On one and the same line in the Table, the cis (Z) compound represents the isomeric structure of the trans (E) compound.

RAR [3] = assay: GAL-RAR model, specificity profile (transient transfection of HeLa cells)
Source text: as §8, §9

AP-1 = assay: Anti-AP-1 effect, MTLN cellular lineage (MCF-7 with (TRE)3-tk-Luc) activated by TPA; format: cell-based, human; conditions: for Anti-AP-1 effect, Inhibition (%): 10^-7 M TPA, range of several experiments
Method: The anti-factor AP-1 transrepressor effect of retinoids is determined using the MTLN lineage, coming from MCF-7 cells transfected in a stable fashion by a vector p(TRE)3 -tk-Luc which places the expression of the gene of luciferase under the control of […]. TPA activates the AP-1 complex formed from proteins of the family of nuclear proto-oncogenes (c-Jun and c-Fos). […] The experiments ware made with the MTLN cells activated by 10^-7 M TPA.
The effect of the compounds on the MTLN cells activated by 10^-7 M TPA is expressed as a percentage. […] The inhibitive properties of the products are calculated after deduction of the base activity of the cells. The percentages reported correspond to a range of inhibitions determined from several experiments.

RARE [4] = assay: HRL+N transactivation (stably transfected HeLa, RARE reporter, endogenic receptors); format: cell-based
Source text: (§5) The cellular lineages HRLN and HRL+N allow one to study the activation of an RARE by endogenic receptors using ligands at physiological concentrations. These lineages derive from HeLa cells transfected in a stable fashion by a reporter gene which places the expression of the gene of the luciferase under the control of a nuclear response element RARE (RARE3 -tk-Luc). The HeLa cells express all the known receptors of the retinoic acid (RARα,β,γ and RXRα,β,γ) with a predominance of RARα and RXRα. The response element RARE used for the HRLN cells corresponds to the sequence of the natural gene of the RARβ receptor (GGTTCAnnnnnAGTTCA). The HRL+N cells comprise the sequence GAGTGAnnnnnCGGTGA.
The HRL+N lineage allows one to visualize a co-activation of the RAR and RXR receptors at the level of the RAR-RXR hetero-dimer.

T-47D cells = assay: Anti-proliferation effect, estrogen-induced growth of T-47D cells; format: cell-based, human
Method: (§6) So as to test the anti-proliferation effect of the retinoids, growth experiments under oestrogenic conditions were carried out on cells MCF-7 and T-47D. These are the human estrogen-dependent mammary cancer cells which express the receptor to RE estrogens. The effect of the molecules is evaluated after 7 days of culture in oestrogenic conditions (estradiol 10^-9 M) by dosing the cellular DNA. The cells are distributed in 24 well plates at a density of 2×10^4 cells per well. The tests with the different retinoids are carried out in triplicate and the culture medium is changed after 4 days of growth.
(§7) The effect of the retinoids on the growth of MCF-7 and T-47D cells is evaluated after 7 days of culture in the presence of 10^-9 M estradiol by dosing the cellular DNA.

MCF-7 cells = assay: Anti-proliferation effect, estrogen-induced growth of MCF-7 cells; format: cell-based, human
Method: as §6, §7

RAR [5] = assay: RAR-ERcassette model, specificity profile (transient transfection of HeLa cells); format: cell-based
Source text: as §1, §2, §3

RARα [6] = assay: Transactivation of chimerical receptor RARα-ERcassette, transient transfection of HeLa cells; format: cell-based; conditions: -9 log M; 100% = TTNPB 10^-8 M
Source text: as §1, §2, §3, §4

RARα [7] = assay: Transactivation of chimerical receptor GAL4-RARα, transient transfection of HeLa cells (luciferase)
Source text: as §8, §9

ERE [8] = assay: Anti-estrogenic effect, MELN cellular lineage (MCF-7 with ERE-βGlob-Luc) activated by estradiol; format: cell-based, human; conditions: Homo sapiens, read-out: Anti-oestrogenic effect, Inhibition (%)
Method: MCF-7 cells express RARα,γ and RXRα. The transfection of MCF-7 cells by an estrogen-dependent gene (ERE-βGlob-Luc) has permitted the establishment of the MELN cellular lineage, used to determine the anti-oestrogenic activity of the retinoids. These cells contain the gene of the luciferase under the transcriptional control of the promoter of the βGlobine and of the response element ERE isolated from the gene of chicken vitelogenine A2. The experiments are carried out with MELN cells activated by 10^-9 M estradiol. The level of base activity of the MELN cells is obtained with the anti-estrogen 1 μM 4-OH-tamoxifen (hydroxytamoxifen).
The effect of the products tested on the cells activated by 10^-9 M estradiol is expressed as a percentage, the level of base activity being deducted.

ERE [9] = conditions: cited from earlier work
RARE [10] = assay: HRLN transactivation (stably transfected HeLa, RARE3-tk-Luc, endogenic receptors); format: cell-based
Source text: as §5

In the case of `C=C(c1ccc(C(=O)O)cc1)c1cc2c(cc1C)C(C)(C)CCC2(C)C` [LGD1069], the “GAL4-RARβ activity, % of activity measured for 10^-8 M TTNPB” value (“GAL4-RARβ activity, % of activity” for short) (RARβ [1]; Concentration -7 (log M)) is reported as 5%, the “GAL4-RARβ activity, % of activity” value (RARβ [1]; Concentration -8 (log M)) is reported as 1% and the “GAL4-RARγ activity, % of activity measured for 10^-8 M TTNPB” value (“GAL4-RARγ activity, % of activity” below) (RARγ; Concentration -6 (log M)) is reported as 29%. For the same molecule, the “GAL4-RARγ activity, % of activity” value (RARγ; Concentration -7 (log M)) was 8%, the “GAL4-RARγ activity, % of activity” value (RARγ; Concentration -8 (log M)) was 1% and the “RARβ transactivation (RAR-ERcassette) in words” value (RARβ [2]) was “transcriptional power appears higher notably through the RARβ-ERcassette”. For the same molecule, the “GAL-RAR agonist profile in words” value (RAR [3]) was “do not allow one to observe a good transactivation mediated by RAR”, the “Anti-AP-1 effect (MTLN) in words” value (AP-1) was “most effective compound tested in this model” and the “HRL+N transactivation in words” value (RARE [4]) was “more effective than the RAR specific molecules”. For the same molecule, the “Effect on growth of T-47D cells in words” value (T-47D cells; estrogenic conditions) was “no effect whatsoever on the growth” and the “Effect on growth of MCF-7 cells in words” value (MCF-7 cells; estrogenic conditions) was “no effect whatsoever on the growth”.

In the case of `CC1=C(/C=C/C(C)=C/C=C/C(C)=C/C(=O)O)C(C)(C)CCC1` [ttRA, all trans retinoic acid], the “GAL4-RARβ activity, % of activity” value (RARβ [1]; Concentration -6 (log M)) is reported as 92%, the “GAL4-RARβ activity, % of activity” value (RARβ [1]; Concentration -7 (log M)) is reported as 93% and the “GAL4-RARβ activity, % of activity” value (RARβ [1]; Concentration -8 (log M)) is reported as 104%. For the same molecule, the “RAR-ERcassette profile in words” value (RAR [5]) was “induce an over-expression of luciferase in comparison to the induction brought about by a synthetic compound (TTNPB)”, the “RAR-ERcassette RARα transactivation (%)” value (RARα [6]) was 65% and the “GAL4-RARα activity, % of activity measured for 10^-8 M TTNPB” value (shortened to “GAL4-RARα activity, % of activity”) (RARα [7]; Concentration -6 (log M)) was 108%. For the same molecule, the “GAL4-RARα activity, % of activity” value (RARα [7]; Concentration -7 (log M)) was 102%, the “GAL4-RARα activity, % of activity” value (RARα [7]; Concentration -8 (log M)) was 82% and the inhibition at 0.1 µM (ERE [8]) was 35%. The “GAL-RAR agonist profile in words” value (RAR [3]) was “good RAR agonists”, the “Anti-AP-1 effect, Inhibition (%)” value (AP-1; -7 log M) was 28-44% and the “Anti-AP-1 effect, Inhibition (%)” value (AP-1; -8 log M) was 22-33%. The “Effect on cellular growth and expression of estrogen-dependent genes” value (ERE [9]) was “reduces the cellular growth and the expression of estrogen-dependent genes”, the IC50 (T-47D cells; Homo sapiens, T47D, 168 h, read-out: T-47D IC50 (growth inhibition by 50%)) was 39.1 nM and the IC50 (MCF-7 cells; Homo sapiens, MCF7, 168 h, read-out: MCF-7 IC50 (growth inhibition by 50%)) was 14.1 ± 10.3 nM. The “HRLN transactivation in words” value (RARE [10]) was “dose-dependent activation”, the EC50 (RARE [10]; Homo sapiens, HeLa, concentrations from 1 nM to 1 μM, read-out: HRLN transactivation EC50) was 2.5 ± 4 nM and the Emax (RARE [10]; Homo sapiens, HeLa, read-out: HRLN transactivation E max %) was 208%.
